{
  "source": "patent US20240368063A1",
  "about": "“PREPARATION METHOD, IN[…], AND SYNTHESIS METHOD FOR A CLASS OF ANTHRACENE-DERIVED TOXINS IN ORGANIC CHEMISTRY” (WUYAN PHARMACEUTICAL TECHNOLOGY (SHANGHAI) CO., LTD, priority 2022, published 2024)",
  "origin": "cited, not measured here",
  "key": {"human tumor cell lines": {"system": "human tumor cell lines", "conditions": "various tumor cell lines, including cells resistant to anthracyclines"}, "topoisomerase II": {"system": "topoisomerase II", "conditions": "at a concentration of 100 μM"}},
  "data": [
    {"smiles": "COc1cccc2c1C(=O)c1c(O)c3c(c(O)c1C2=O)C[C@@](O)(C(=O)CO)C[C@@H]3O[C@H]1C[C@H]2[C@H](O[C@@H]3[C@@H](OC)OCCN32)[C@H](C)O1", "note": "[PNU-159682]", "values": [
      {"measurement": "cytotoxicity compared to anthracyclines", "setting": "human tumor cell lines", "result": "three orders of magnitude higher cytotoxicity"},
      {"measurement": "inhibition of the activity of topoisomerase II", "setting": "topoisomerase II", "result": "weakly inhibits"}
    ]}
  ]
}
